Measured values from ChEMBL document CHEMBL3758177, “Synthesis and biological evaluation of novel phosphoramidate derivatives of coumarin as chitin synthase inhibitors and antifungal agents” (Eur J Med Chem, 2016).
In brackets after ≈: the same amount, converted by molar mass.

Assays:
Aspergillus flavus = assay: Antifungal activity against Aspergillus flavus ATCC 16870 after 24 hrs by two-fold serial dilution method; assay type: functional; details: ATCC 16870, 24 h
Aspergillus fumigatus = assay: Antifungal activity against Aspergillus fumigatus GIMCC 3.19 after 24 hrs by two-fold serial dilution method; assay type: functional; details: GIMCC 3.19, 24 h
Cryptococcus neoformans = assay: Antifungal activity against Cryptococcus neoformans ATCC 32719 after 24 hrs by two-fold serial dilution method; assay type: functional; details: ATCC 32719, 24 h
Staphylococcus aureus [1] = assay: Antibacterial activity against Methicillin-resistant Staphylococcus aureus N 315 after 24 hrs by two-fold serial dilution method; assay type: functional; details: N 315, 24 h
Staphylococcus aureus [2] = assay: Antibacterial activity against Staphylococcus aureus ATCC 25923 after 24 hrs by two-fold serial dilution method; assay type: functional; details: ATCC 25923, 24 h
Bacillus spizizenii = assay: Antibacterial activity against Bacillus subtilis ATCC 6633 after 24 hrs by two-fold serial dilution method; assay type: functional; details: ATCC 6633, 24 h
Proteus vulgaris = assay: Antibacterial activity against Proteus vulgaris ATCC 8427 after 24 hrs by two-fold serial dilution method; assay type: functional; details: ATCC 8427, 24 h
Pseudomonas aeruginosa = assay: Antibacterial activity against Pseudomonas aeruginosa ATCC 9027 after 24 hrs by two-fold serial dilution method; assay type: functional; details: ATCC 9027, 24 h
Escherichia coli = assay: Antibacterial activity against Escherichia coli JM 109 after 24 hrs by two-fold serial dilution method; assay type: functional; details: JM 109, 24 h
Candida tropicalis = assay: Inhibition of Candida tropicalis ATCC 750 chitin synthase using UDP-GlcNAc as substrate at 300 ug/ml after 60 mins by microplate reader method
Candida albicans = assay: Antifungal activity against Candida albicans CMCC 76615 after 24 hrs by two-fold serial dilution method; assay type: functional; details: CMCC 76615, 24 h
[3] = Inhibition of Candida tropicalis ATCC 750 chitin synthase using UDP-GlcNAc as substrate after 60 mins by microplate reader method

Row | Structure (SMILES) | MIC (Aspergillus flavus) [µg/mL] | MIC (Aspergillus fumigatus) [µg/mL] | MIC (Cryptococcus neoformans) [µg/mL] | MIC (Staphylococcus aureus [1]) [µg/mL] | MIC (Staphylococcus aureus [2]) [µg/mL] | MIC (Bacillus spizizenii) [µg/mL] | MIC (Proteus vulgaris) [µg/mL] | MIC (Pseudomonas aeruginosa) [µg/mL] | MIC (Escherichia coli) [µg/mL] | inhibition (Candida tropicalis) [%] | MIC (Candida albicans) [µg/mL] | IC50 [3] [µM]
1 | COC(=O)C(NP(=O)(OCCN(C)c1cc(=O)oc2cc(C)ccc12)Oc1ccccc1)C(C)C (stereo unspecified) | 128 (≈ 255 µM) | 128 (≈ 255 µM) | 128 (≈ 255 µM) | 128 (≈ 255 µM) | 64 (≈ 127 µM) | 32 (≈ 63.7 µM) | 128 (≈ 255 µM) | 64 (≈ 127 µM) | 256 (≈ 509 µM) | 38 | 128 (≈ 255 µM) | –
2 | NC(=O)OC[C@H](O)[C@@H](O)[C@H](N)C(=O)N[C@H](C(=O)O)[C@H]1O[C@@H](n2cc(CO)c(=O)[nH]c2=O)[C@H](O)[C@@H]1O [POLYOXIN B] | 64 (≈ 126 µM) | 64 (≈ 126 µM) | 8 (≈ 15.8 µM) | – | – | – | – | – | – | 82 | 32 (≈ 63.1 µM) | 160
3 | CN[C@@H]1[C@H](O[C@H]2[C@H](O[C@H]3[C@H](O)[C@@H](O)[C@H](N=C(N)N)[C@@H](O)[C@@H]3N=C(N)N)O[C@@H](C)[C@]2(O)C=O)O[C@@H](CO)[C@H](O)[C@H]1O [STREPTOMYCIN] | – | – | – | 4 (≈ 6.88 µM) | 4 (≈ 6.88 µM) | 4 (≈ 6.88 µM) | 1 (≈ 1.72 µM) | 4 (≈ 6.88 µM) | 4 (≈ 6.88 µM) | – | – | –
4 | COC(=O)C(C)NP(=O)(OCCN(C)c1cc(=O)oc2ccc(C(C)(C)C)cc12)Oc1ccccc1 (stereo unspecified) | 16 (≈ 31 µM) | 64 (≈ 124 µM) | 64 (≈ 124 µM) | 1 (≈ 1.94 µM) | 64 (≈ 124 µM) | 16 (≈ 31 µM) | 16 (≈ 31 µM) | 16 (≈ 31 µM) | 16 (≈ 31 µM) | 62 | 64 (≈ 124 µM) | 170
5 | COC(=O)C(NP(=O)(OCCN(C)c1cc(=O)oc2ccc(C)cc12)Oc1ccccc1)C(C)C (stereo unspecified) | 128 (≈ 255 µM) | 128 (≈ 255 µM) | 32 (≈ 63.7 µM) | 32 (≈ 63.7 µM) | 16 (≈ 31.8 µM) | 16 (≈ 31.8 µM) | 32 (≈ 63.7 µM) | 16 (≈ 31.8 µM) | 16 (≈ 31.8 µM) | 41 | 64 (≈ 127 µM) | –
6 | COC(=O)C(Cc1ccccc1)NP(=O)(OCCN(C)c1cc(=O)oc2c(C)cccc12)Oc1ccccc1 (stereo unspecified) | 64 (≈ 116 µM) | 128 (≈ 232 µM) | 64 (≈ 116 µM) | 1 (≈ 1.82 µM) | 256 (≈ 465 µM) | 16 (≈ 29.1 µM) | 256 (≈ 465 µM) | 128 (≈ 232 µM) | 256 (≈ 465 µM) | 48 | 128 (≈ 232 µM) | –
7 | COC(=O)CNP(=O)(OCCN(C)c1cc(=O)oc2cc(C)ccc12)Oc1ccccc1 (stereo unspecified) | 64 (≈ 139 µM) | 32 (≈ 69.5 µM) | 16 (≈ 34.8 µM) | 256 (≈ 556 µM) | 256 (≈ 556 µM) | 512 (≈ 1110 µM) | 512 (≈ 1110 µM) | 512 (≈ 1110 µM) | 128 (≈ 278 µM) | 59 | 32 (≈ 69.5 µM) | 320
8 | COC(=O)C(NP(=O)(OCCN(C)c1cc(=O)oc2ccc(C(C)(C)C)cc12)Oc1ccccc1)C(C)C (stereo unspecified) | 2 (≈ 3.67 µM) | 64 (≈ 118 µM) | 32 (≈ 58.8 µM) | 16 (≈ 29.4 µM) | 32 (≈ 58.8 µM) | 16 (≈ 29.4 µM) | 32 (≈ 58.8 µM) | 32 (≈ 58.8 µM) | 16 (≈ 29.4 µM) | 62 | 64 (≈ 118 µM) | 180
9 | COC(=O)C(NP(=O)(OCCN(C)c1cc(=O)oc2ccccc12)Oc1ccccc1)C(C)C (stereo unspecified) | 16 (≈ 32.8 µM) | 64 (≈ 131 µM) | 64 (≈ 131 µM) | 256 (≈ 524 µM) | 256 (≈ 524 µM) | 128 (≈ 262 µM) | 512 (≈ 1050 µM) | 512 (≈ 1050 µM) | 512 (≈ 1050 µM) | 54 | 32 (≈ 65.5 µM) | 380
10 | COC(=O)C(Cc1ccccc1)NP(=O)(OCCN(C)c1cc(=O)oc2ccc(C)cc12)Oc1ccccc1 (stereo unspecified) | 64 (≈ 116 µM) | 128 (≈ 232 µM) | 64 (≈ 116 µM) | 128 (≈ 232 µM) | 64 (≈ 116 µM) | 64 (≈ 116 µM) | 16 (≈ 29.1 µM) | 256 (≈ 465 µM) | 64 (≈ 116 µM) | 43 | 64 (≈ 116 µM) | –
11 | COC(=O)CNP(=O)(OCCN(C)c1cc(=O)oc2ccccc12)Oc1ccccc1 (stereo unspecified) | 128 (≈ 287 µM) | 128 (≈ 287 µM) | 64 (≈ 143 µM) | 256 (≈ 573 µM) | 256 (≈ 573 µM) | 512 (≈ 1150 µM) | 512 (≈ 1150 µM) | 256 (≈ 573 µM) | 128 (≈ 287 µM) | 49 | 64 (≈ 143 µM) | 640
12 | COC(=O)C(NP(=O)(OCCN(C)c1cc(=O)oc2c(C)cccc12)Oc1ccccc1)C(C)C (stereo unspecified) | 128 (≈ 255 µM) | 128 (≈ 255 µM) | 128 (≈ 255 µM) | 32 (≈ 63.7 µM) | 128 (≈ 255 µM) | 32 (≈ 63.7 µM) | 256 (≈ 509 µM) | 256 (≈ 509 µM) | 256 (≈ 509 µM) | 45 | 128 (≈ 255 µM) | –
13 | CC1COc2c(N3CCN(C)CC3)c(F)cc3c(=O)c(C(=O)O)cn1c23 (stereo unspecified) [OFLOXACIN] | – | – | – | 1 (≈ 2.77 µM) | 1 (≈ 2.77 µM) | 0.25 (≈ 0.692 µM) | 0.25 (≈ 0.692 µM) | 0.25 (≈ 0.692 µM) | 0.25 (≈ 0.692 µM) | – | – | –
14 | COC(=O)C(C)NP(=O)(OCCN(C)c1cc(=O)oc2cc(C)ccc12)Oc1ccccc1 (stereo unspecified) | 64 (≈ 135 µM) | 128 (≈ 270 µM) | 128 (≈ 270 µM) | 256 (≈ 540 µM) | 128 (≈ 270 µM) | 256 (≈ 540 µM) | 256 (≈ 540 µM) | 256 (≈ 540 µM) | 128 (≈ 270 µM) | 45 | 128 (≈ 270 µM) | –
15 | COC(=O)C(Cc1ccccc1)NP(=O)(OCCN(C)c1cc(=O)oc2cc(C)ccc12)Oc1ccccc1 (stereo unspecified) | 1 (≈ 1.82 µM) | 64 (≈ 116 µM) | 32 (≈ 58.1 µM) | 2 (≈ 3.63 µM) | 32 (≈ 58.1 µM) | 16 (≈ 29.1 µM) | 16 (≈ 29.1 µM) | 128 (≈ 232 µM) | 16 (≈ 29.1 µM) | 56 | 64 (≈ 116 µM) | 300
16 | COC(=O)C(Cc1ccccc1)NP(=O)(OCCN(C)c1cc(=O)oc2ccccc12)Oc1ccccc1 (stereo unspecified) | 8 (≈ 14.9 µM) | 128 (≈ 239 µM) | 64 (≈ 119 µM) | 128 (≈ 239 µM) | 64 (≈ 119 µM) | 128 (≈ 239 µM) | 16 (≈ 29.8 µM) | 64 (≈ 119 µM) | 64 (≈ 119 µM) | 59 | 64 (≈ 119 µM) | 250
17 | COC(=O)CNP(=O)(OCCN(C)c1cc(=O)oc2ccc(C(C)(C)C)cc12)Oc1ccccc1 (stereo unspecified) | 64 (≈ 127 µM) | 32 (≈ 63.7 µM) | 32 (≈ 63.7 µM) | 8 (≈ 15.9 µM) | 64 (≈ 127 µM) | 16 (≈ 31.8 µM) | 64 (≈ 127 µM) | 16 (≈ 31.8 µM) | 64 (≈ 127 µM) | 50 | 64 (≈ 127 µM) | 620
18 | COC(=O)C(C)NP(=O)(OCCN(C)c1cc(=O)oc2ccc(C)cc12)Oc1ccccc1 (stereo unspecified) | 128 (≈ 270 µM) | 64 (≈ 135 µM) | 32 (≈ 67.4 µM) | 256 (≈ 540 µM) | 256 (≈ 540 µM) | 256 (≈ 540 µM) | 512 (≈ 1080 µM) | 512 (≈ 1080 µM) | 16 (≈ 33.7 µM) | 61 | 64 (≈ 135 µM) | 260
19 | COC(=O)CNP(=O)(OCCN(C)c1cc(=O)oc2c(C)cccc12)Oc1ccccc1 (stereo unspecified) | 64 (≈ 139 µM) | 128 (≈ 278 µM) | 64 (≈ 139 µM) | 256 (≈ 556 µM) | 128 (≈ 278 µM) | 512 (≈ 1110 µM) | 256 (≈ 556 µM) | 256 (≈ 556 µM) | 32 (≈ 69.5 µM) | 55 | 64 (≈ 139 µM) | 450
20 | COC(=O)C(C)NP(=O)(OCCN(C)c1cc(=O)oc2c(C)cccc12)Oc1ccccc1 (stereo unspecified) | 64 (≈ 135 µM) | 32 (≈ 67.4 µM) | 128 (≈ 270 µM) | 128 (≈ 270 µM) | 64 (≈ 135 µM) | 512 (≈ 1080 µM) | 128 (≈ 270 µM) | 256 (≈ 540 µM) | 128 (≈ 270 µM) | 64 | 64 (≈ 135 µM) | 220
